Assays:
[1] = system: B. napus wild type line SR002201 (NCIMB 41813); test: ALS-inhibitor herbicide injury on B. napus, greenhouse spray trial, visual scoring; format: in vivo, Brassica napus
Procedure: (§1) The individual components herbicide and surfactant with regard to type and application rate as stated in table I were added with stirring to a water application rate of 300 l/ha so that a homogeneous spray mixture was formed.
(§2) Seeds of B. napus were sown in a sandy loam soil and placed in a climate chamber in a greenhouse under good growth conditions (16 h light, temperature day 14° C., night: 8° C.). The plants were grown up to growth stage of BBCH 12 to BBCH 13. […] After the treatment, the plants were returned to the climate chamber.
(§3) Visual scoring was carried out using a percentage scale of 0%=no damage to 100%=all plants dead.

[2] = system: B. napus mutant FM 202 (ALS I A190V, ALS III W556L); test: as above; format: in vivo, Brassica napus
Procedure: as §1, §2, §3

[3] = system: plants regenerated from the clone FM202; test: Growth of regenerated plants in presence of herbicide; format: cell-based, Brassica napus; conditions: high concentration of ALS inhibitor (selection at 10^−4 M)
[4] = system: B. napus plants of the present invention; test: Sensitivity to ALS inhibitor herbicide compared to wild type; set-up: species or system Brassica napus; conditions: B. napus plant described in the Examples vs wild type
[5] = Brassica napus, 336 h, 30 g a.i./ha, spray at BBCH 12-13 with Mero 1 l/ha, visual scoring 14 days after application, 0%=no damage, 100%=all plants dead
[6] = Brassica napus, 336 h, 35 g a.i./ha, spray at BBCH 12-13 with Mero 1 l/ha, visual scoring 14 days after application, 0%=no damage, 100%=all plants dead
[7] = Brassica napus, 336 h, 7 g a.i./ha, spray at BBCH 12-13 with Mero 1 l/ha, visual scoring 14 days after application, 0%=no damage, 100%=all plants dead
[8] = 15 g a.i./ha, spray at BBCH 12-13 with Mero 1 l/ha, visual scoring 14 days after application, 0%=no damage, 100%=all plants dead
[9] = 20 g a.i./ha, spray at BBCH 12-13 with Mero 1 l/ha, visual scoring 14 days after application, 0%=no damage, 100%=all plants dead
[10] = 30 g a.i./ha, spray at BBCH 12-13 with Mero 1 l/ha, visual scoring 14 days after application, 0%=no damage, 100%=all plants dead

COc1cc(OC)nc(NC(=O)NS(=O)(=O)N(C)S(C)(=O)=O)n1 [Amidosulfuron]
pest or weed control at 30 g/ha [1, 5]: 93% | pest or weed control at 30 g/ha [2, 5]: 0%

COc1nc(C)nc(NC(=O)NS(=O)(=O)c2ccccc2Cl)n1 [Chlorsulfuron]
Herbicide injury on B. napus FM 202 ([2]; 9 g a.i./ha, spray at BBCH 12-13 with Mero 1 l/ha, visual scoring 14 days after application, 0%=no damage, 100%=all plants dead): 0%

COc1cc(OC)nc(NC(=O)[N-]S(=O)(=O)c2ncccc2C2=NOCCO2)n1.[Na+] [Compound of formula (I)]
growth of plants regenerated from clone FM202 in presence of the ALS inhibitor [3]: able to grow

CCOc1ccccc1OS(=O)(=O)NC(=O)Nc1nc(OC)cc(OC)n1 [Ethoxysulfuron]
Herbicide injury on B. napus FM 202 ([2]; 60 g a.i./ha, spray at BBCH 12-13 with Mero 1 l/ha, visual scoring 14 days after application, 0%=no damage, 100%=all plants dead): 0%

COc1cc(OC)nc(NC(=O)NS(=O)(=O)c2cc(NC=O)ccc2C(=O)N(C)C)n1 [Foramsulfuron]
times less sensitive to the ALS inhibitor herbicide compared to the wild type enzyme [4]: at least 1000 times | pest or weed control at 35 g/ha [1, 6]: 75% | pest or weed control at 35 g/ha [2, 6]: 0%

COCc1cnc(C2=NC(C)(C(C)C)C(=O)N2)c(C(=O)O)c1 (stereo not drawn) [Imazamox]
Herbicide injury on B. napus FM 202 ([2]; 40 g a.i./ha, spray at BBCH 12-13 with Mero 1 l/ha, visual scoring 14 days after application, 0%=no damage, 100%=all plants dead): 0%

COc1nc(C)nc(NC(=O)NS(=O)(=O)c2cc(I)ccc2C(=O)O)n1 [Iodosulfuron]
pest or weed control at 7 g/ha [1, 7]: 95% | pest or weed control at 7 g/ha [2, 7]: 0%

COc1cc(OC)nc(NC(=O)NS(=O)(=O)c2cc(CNS(C)(=O)=O)ccc2C(=O)O)n1 [Mesosulfuron]
Herbicide injury on B. napus SR002201 [1, 8]: 90% | Herbicide injury on B. napus FM 202 [2, 8]: 0%

COc1nc(C)nc(=NC(=O)NS(=O)(=O)c2ccccc2C(=O)O)[nH]1 [Metsulfuron]
pest or weed control at 8 g/ha ([1]; Brassica napus, 336 h, read-out: Herbicide injury on B. napus SR002201): 93% | pest or weed control at 8 g/ha ([2]; Brassica napus, 336 h, read-out: Herbicide injury on B. napus FM 202): 0%

COc1nn(C(=O)NS(=O)(=O)c2c(C(=O)O)csc2C)c(=O)n1C [Thiencarbazone]
Herbicide injury on B. napus SR002201 [1, 9]: 90% | Herbicide injury on B. napus FM 202 [2, 9]: 0%

COc1nc(C)nc(N(C)C(=O)NS(=O)(=O)c2ccccc2C(=O)O)n1 [Tribenuron]
Herbicide injury on B. napus SR002201 [1, 10]: 95% | Herbicide injury on B. napus FM 202 [2, 10]: 3%

Cc1cccc(C(=O)O)c1S(=O)(=O)NC(=O)Nc1nc(OCC(F)(F)F)nc(N(C)C)n1 [Triflusulfuron]
Herbicide injury on B. napus SR002201 [1, 9]: 65% | Herbicide injury on B. napus FM 202 [2, 9]: 0%

Reference: patent US9572315B2, “ALS inhibitor herbicide tolerant B. napus mutants” (BAYER INTELLECTUAL PROPERTY GMBH, priority 2011, dated 2017)
